Paper PMC11600510 (Journal of Chemical Information and Modeling, 2024)

Legend:
CYP2A6 = target: T1, CYP2A6 (Homo sapiens, UniProt P11509); assay: Isozyme-specific CYP450 inhibition; format: in vitro ADME; conditions: recombinant human CYP2A6 with CYP450 reductase (Baculosomes), probe fluorescent substrate (not named)
T1 construct: purchased Thermo Fisher Scientific; host or cells: Baculosomes
T1 sequence (P11509 1-494): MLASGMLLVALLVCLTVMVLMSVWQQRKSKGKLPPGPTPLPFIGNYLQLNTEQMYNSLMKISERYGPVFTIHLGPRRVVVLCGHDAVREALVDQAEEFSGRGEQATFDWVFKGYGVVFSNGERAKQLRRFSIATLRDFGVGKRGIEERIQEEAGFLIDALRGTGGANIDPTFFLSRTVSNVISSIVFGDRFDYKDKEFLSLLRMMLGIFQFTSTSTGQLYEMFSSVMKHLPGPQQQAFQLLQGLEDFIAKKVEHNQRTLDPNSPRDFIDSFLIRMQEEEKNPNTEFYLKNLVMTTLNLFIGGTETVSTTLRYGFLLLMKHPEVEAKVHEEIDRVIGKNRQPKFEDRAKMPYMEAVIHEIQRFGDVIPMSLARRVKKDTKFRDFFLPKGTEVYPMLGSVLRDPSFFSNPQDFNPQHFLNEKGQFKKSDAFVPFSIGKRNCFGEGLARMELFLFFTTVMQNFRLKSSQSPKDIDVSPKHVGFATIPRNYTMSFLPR
Procedure: (§1) For this, the activity of CYP1A2, CYP2A6, CYP2B6, CYP2C9, CYP2C19, CYP2D6, and CYP3A4 was assessed after the administration of CKP-25 at 1 μM to determine (a) the oxidative (CYP-mediated) metabolic stability profile in question and (b) the enzyme metabolizing isoforms responsible (the test system consists of recombinant human CYP450 and CYP450 reductase; cytochrome b5 may also be present). Herein, no concentration-dependent effects were reported. […] No product inhibition or mechanism-based inactivation of the CYP450 isoenzymes in question was obtained. Test-compounds with poor solubility can show artificially low CYP450 inhibition and thus, chemical entities with potential drug–drug interaction toxicities may be overlooked.
(§2) Human cytochrome P450 (CYP450) isoenzymes were expressed in Baculosomes obtained from Thermo Fisher Scientific (Waltham, MA, USA). Reagents were handled and prepared following the manufacturer’s guidelines. Compound CKP-25 was evaluated at a concentration of 1 μM according to our established standard operating procedures and protocols as described previously.[127],[128] The enzymatic activity of various CYP450 isoforms (CYP1A2, CYP2A6, CYP2B6, CYP2C9, CYP2C19, CYP2D6, and CYP3A4) was measured, considering the kinetic model for each isoform. The reactions were conducted in triplicate at 20 °C. NADP+ (10 mM in 100 mM potassium phosphate, pH 8.0) was converted to NADPH using a regeneration system containing glucose-6-phosphate (333 mM) and glucose-6-phosphate dehydrogenase (30 U/mL in 100 mM potassium phosphate, pH 8.0). Upon the addition of the fluorescent substrate, signal monitoring was performed immediately (within 2 min) using appropriate excitation and emission wavelengths, recorded by an Agilent BioTek Lionheart FX (Winooski, VT, USA). CYP450 inhibition (%) was calculated based on the reaction rates (fluorescence intensity changes per unit time). In total, n = 60 meaurements per minute were recorded over a 60 min period. [drawing 2] where X, the rate observed in the presence of a test-compound; A, the rate observed in the presence of negative (solvent, DMSO) control.

CYP2C9 = target: T2, CYP2C9 (Homo sapiens, UniProt P11712); assay: Isozyme-specific CYP450 inhibition; format: in vitro ADME; conditions: recombinant human CYP2C9 with CYP450 reductase (Baculosomes), probe fluorescent substrate (not named)
T2 construct: purchased Thermo Fisher Scientific; host or cells: Baculosomes
Procedure: as §1, §2

CYP2D6 = target: T3, CYP2D6 (Homo sapiens, UniProt P10635); assay: Isozyme-specific CYP450 inhibition; format: in vitro ADME; conditions: recombinant human CYP2D6 with CYP450 reductase (Baculosomes), probe fluorescent substrate (not named)
T3 construct: purchased Thermo Fisher Scientific; host or cells: Baculosomes
Procedure: as §1, §2

CYP3A4 = target: T4, CYP3A4 (Homo sapiens, UniProt P08684); assay: Isozyme-specific CYP450 inhibition; format: in vitro ADME; conditions: recombinant human CYP3A4 with CYP450 reductase (Baculosomes), probe fluorescent substrate (not named)
T4 construct: purchased Thermo Fisher Scientific; host or cells: Baculosomes
Procedure: as §1, §2

CYP1A2 = target: T5, CYP1A2 (Homo sapiens, UniProt P05177); assay: Isozyme-specific CYP450 inhibition; format: in vitro ADME; conditions: recombinant human CYP1A2 with CYP450 reductase (Baculosomes), probe fluorescent substrate (not named)
T5 construct: purchased Thermo Fisher Scientific; host or cells: Baculosomes
T5 sequence (P05177 2-516 limits assumed): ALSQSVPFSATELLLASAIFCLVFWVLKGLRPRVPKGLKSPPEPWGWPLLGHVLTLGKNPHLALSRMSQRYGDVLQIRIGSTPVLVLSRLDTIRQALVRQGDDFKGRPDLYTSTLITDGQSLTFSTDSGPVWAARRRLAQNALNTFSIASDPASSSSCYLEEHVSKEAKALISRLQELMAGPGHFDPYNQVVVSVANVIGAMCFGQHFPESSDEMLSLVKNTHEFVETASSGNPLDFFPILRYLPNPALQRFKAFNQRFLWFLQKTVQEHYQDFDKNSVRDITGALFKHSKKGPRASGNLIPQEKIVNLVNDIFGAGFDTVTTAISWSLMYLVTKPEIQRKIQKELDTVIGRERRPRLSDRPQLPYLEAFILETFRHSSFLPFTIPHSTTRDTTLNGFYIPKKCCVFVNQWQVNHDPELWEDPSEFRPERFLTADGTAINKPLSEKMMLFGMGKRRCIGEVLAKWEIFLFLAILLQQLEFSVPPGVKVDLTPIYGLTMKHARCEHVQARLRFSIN
Procedure: as §1, §2

CYP2C19 = target: T6, CYP2C19 (Homo sapiens, UniProt P33261); assay: Isozyme-specific CYP450 inhibition; format: in vitro ADME; conditions: probe fluorescent substrate (not named)
T6 construct: purchased Thermo Fisher Scientific; host or cells: Baculosomes
Procedure: as §1, §2

CYP450 system = assay: Isozyme-specific CYP450 study, overall statement; format: in vitro ADME, human; conditions: 1 μM
Procedure: as §1, with “Test-compounds with poor solubility can show artificially low CYP450 inhibition and thus, chemical entities with potential drug–drug interaction toxicities may be overlooked.” left out
Human cytochrome P450 (CYP450) isoenzymes were expressed in Baculosomes obtained from Thermo Fisher Scientific (Waltham, MA, USA). […] Compound CKP-25 was evaluated at a concentration of 1 μM according to our established standard operating procedures and protocols as described previously.[127],[128] The enzymatic activity of various CYP450 isoforms (CYP1A2, CYP2A6, CYP2B6, CYP2C9, CYP2C19, CYP2D6, and CYP3A4) was measured, considering the kinetic model for each isoform. […] Upon the addition of the fluorescent substrate, signal monitoring was performed immediately (within 2 min) using appropriate excitation and emission wavelengths, recorded by an Agilent BioTek Lionheart FX (Winooski, VT, USA). CYP450 inhibition (%) was calculated based on the reaction rates (fluorescence intensity changes per unit time). […]

T3 sequence (P10635 whole entry): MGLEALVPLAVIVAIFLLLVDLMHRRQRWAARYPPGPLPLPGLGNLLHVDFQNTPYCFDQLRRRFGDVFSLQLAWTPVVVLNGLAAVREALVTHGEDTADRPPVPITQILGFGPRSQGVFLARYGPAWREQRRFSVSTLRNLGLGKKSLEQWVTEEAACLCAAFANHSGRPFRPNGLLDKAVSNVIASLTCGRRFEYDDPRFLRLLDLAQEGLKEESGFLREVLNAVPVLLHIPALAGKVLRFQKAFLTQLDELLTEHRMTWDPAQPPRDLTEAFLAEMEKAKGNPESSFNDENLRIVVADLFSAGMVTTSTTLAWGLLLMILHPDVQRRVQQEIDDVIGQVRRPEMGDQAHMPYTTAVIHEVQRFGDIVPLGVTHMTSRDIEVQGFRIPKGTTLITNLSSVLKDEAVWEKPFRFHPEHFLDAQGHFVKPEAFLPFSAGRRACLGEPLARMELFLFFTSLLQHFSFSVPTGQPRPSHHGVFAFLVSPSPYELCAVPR
T6 sequence (P33261 whole entry): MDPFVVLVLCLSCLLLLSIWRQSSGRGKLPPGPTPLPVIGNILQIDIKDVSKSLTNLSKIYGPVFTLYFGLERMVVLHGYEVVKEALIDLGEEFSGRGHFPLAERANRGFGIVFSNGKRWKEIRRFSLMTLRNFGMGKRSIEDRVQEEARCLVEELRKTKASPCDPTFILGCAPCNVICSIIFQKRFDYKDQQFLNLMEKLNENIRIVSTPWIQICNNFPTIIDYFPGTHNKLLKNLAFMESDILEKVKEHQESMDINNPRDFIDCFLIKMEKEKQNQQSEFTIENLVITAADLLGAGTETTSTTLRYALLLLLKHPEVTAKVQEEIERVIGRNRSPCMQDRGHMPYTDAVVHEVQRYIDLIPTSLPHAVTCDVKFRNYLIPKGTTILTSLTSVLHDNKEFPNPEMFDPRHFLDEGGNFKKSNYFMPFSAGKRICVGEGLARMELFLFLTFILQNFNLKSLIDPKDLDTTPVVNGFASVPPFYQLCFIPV
T2 sequence (P11712 whole entry): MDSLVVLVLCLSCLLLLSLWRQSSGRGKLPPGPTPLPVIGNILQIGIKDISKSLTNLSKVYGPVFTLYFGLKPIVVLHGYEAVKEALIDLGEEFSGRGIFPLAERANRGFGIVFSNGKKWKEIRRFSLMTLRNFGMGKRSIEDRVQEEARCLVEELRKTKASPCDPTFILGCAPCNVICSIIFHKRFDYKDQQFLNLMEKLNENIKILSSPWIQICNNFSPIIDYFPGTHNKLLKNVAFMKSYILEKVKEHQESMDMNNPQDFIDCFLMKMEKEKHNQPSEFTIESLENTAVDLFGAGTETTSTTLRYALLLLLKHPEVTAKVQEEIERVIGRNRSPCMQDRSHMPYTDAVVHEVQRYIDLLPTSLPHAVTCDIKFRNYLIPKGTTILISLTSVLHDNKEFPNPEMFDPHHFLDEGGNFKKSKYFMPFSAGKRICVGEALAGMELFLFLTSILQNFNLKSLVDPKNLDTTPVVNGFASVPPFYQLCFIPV
T4 sequence (P08684 2-503 limits assumed): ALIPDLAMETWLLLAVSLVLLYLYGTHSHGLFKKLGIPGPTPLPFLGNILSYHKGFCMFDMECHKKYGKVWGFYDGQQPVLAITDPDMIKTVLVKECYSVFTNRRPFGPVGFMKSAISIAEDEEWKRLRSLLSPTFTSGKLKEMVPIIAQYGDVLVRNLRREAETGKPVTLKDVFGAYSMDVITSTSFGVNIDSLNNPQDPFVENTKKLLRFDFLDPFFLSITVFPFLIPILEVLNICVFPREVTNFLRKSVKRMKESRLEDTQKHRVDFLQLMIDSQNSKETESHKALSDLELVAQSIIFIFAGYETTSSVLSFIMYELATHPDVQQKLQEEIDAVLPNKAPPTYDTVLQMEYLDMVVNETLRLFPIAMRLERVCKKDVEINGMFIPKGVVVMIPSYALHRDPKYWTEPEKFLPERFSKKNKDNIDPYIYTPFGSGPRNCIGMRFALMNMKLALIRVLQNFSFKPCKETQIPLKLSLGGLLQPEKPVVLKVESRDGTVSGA

## COc1cccc2c1ncn2Cc1ccc2ccccc2c1 [CKP-25, 4-Methoxy-1-(naphthalen-2-ylmethyl)-1H-benzo[d]imidazole]
CYP2A6
  inhibition at 60 min, 1 µM: 6%
CYP2C9
  inhibition at 60 min, 1 µM: 11%
CYP2D6
  inhibition at 60 min, 1 µM: 1%
CYP3A4
  inhibition at 60 min, 1 µM: 3%
CYP1A2
  inhibition at 60 min, 1 µM: 0%
CYP2C19
  inhibition at 60 min, 1 µM: 20%
CYP450 system
  inhibition of the CYP450 system (in words): weak inhibitor
  solubility issues in the CYP450 assay: No solubility issues
